From paper PMC6309603 (Molecular diversity, 2018) come the findings set out here.

Where two headings read alike, the source gives them in different places.

In general, IC50 refers to the concentration at which inhibition is half-maximal.

One test addresses BChE (Homo sapiens, UniProt P06276). As to the kind of experiment: biochemical.
The target in a further test is AChE (Homo sapiens, UniProt P22303). As to the kind of experiment: biochemical. To be noted: for Selectivity for AChE: IC50 (BChE)/IC50 (AChE).
Sequence of AChE (P22303 32-614): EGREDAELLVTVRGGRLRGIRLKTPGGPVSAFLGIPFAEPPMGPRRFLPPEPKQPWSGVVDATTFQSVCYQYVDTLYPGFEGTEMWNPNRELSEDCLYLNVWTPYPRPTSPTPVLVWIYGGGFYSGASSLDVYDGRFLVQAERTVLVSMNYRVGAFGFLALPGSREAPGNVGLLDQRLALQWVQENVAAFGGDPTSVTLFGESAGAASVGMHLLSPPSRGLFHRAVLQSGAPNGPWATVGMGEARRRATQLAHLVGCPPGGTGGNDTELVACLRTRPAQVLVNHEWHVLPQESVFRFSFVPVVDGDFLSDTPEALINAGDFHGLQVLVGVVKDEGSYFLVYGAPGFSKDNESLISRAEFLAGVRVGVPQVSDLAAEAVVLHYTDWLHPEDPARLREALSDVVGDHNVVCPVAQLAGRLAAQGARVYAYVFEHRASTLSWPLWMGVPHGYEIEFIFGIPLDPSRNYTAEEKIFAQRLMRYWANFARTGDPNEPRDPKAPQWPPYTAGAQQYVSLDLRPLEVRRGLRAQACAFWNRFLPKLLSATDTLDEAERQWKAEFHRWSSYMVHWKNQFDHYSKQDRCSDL
Setting [1] is: read-out: IC50 BChE, means±SD of three assays, 30 min, 30 °C, pH 8.0.
The mark [2] stands for this setting: read-out: IC50 AChE, means±SD of three assays, 30 min, 30 °C, pH 8.0.

Sequence of BChE (P06276 29-602): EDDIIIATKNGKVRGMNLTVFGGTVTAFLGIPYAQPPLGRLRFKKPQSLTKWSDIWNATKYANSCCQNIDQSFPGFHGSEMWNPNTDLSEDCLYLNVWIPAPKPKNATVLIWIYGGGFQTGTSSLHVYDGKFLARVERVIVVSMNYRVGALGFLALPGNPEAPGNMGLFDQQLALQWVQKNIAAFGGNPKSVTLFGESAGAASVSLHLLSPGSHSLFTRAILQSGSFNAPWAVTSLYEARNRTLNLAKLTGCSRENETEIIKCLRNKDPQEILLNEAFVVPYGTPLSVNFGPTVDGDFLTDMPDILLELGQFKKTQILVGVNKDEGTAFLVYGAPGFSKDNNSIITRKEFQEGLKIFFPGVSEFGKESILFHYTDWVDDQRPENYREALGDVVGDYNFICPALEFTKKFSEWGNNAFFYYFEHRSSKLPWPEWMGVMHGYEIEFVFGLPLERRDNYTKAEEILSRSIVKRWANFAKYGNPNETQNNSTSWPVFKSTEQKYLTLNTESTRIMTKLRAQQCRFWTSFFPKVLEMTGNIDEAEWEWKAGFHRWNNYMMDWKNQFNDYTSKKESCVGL

For `CN(C)C(=O)COc1ccccc1/C=C/C(=O)c1cc2ccccc2oc1=O` [Compound 11d, (E)-N,N-dimethyl-2-(2-(3-oxo-3-(2-oxo-2H-chromen-3-yl)prop-1-en-1-yl)phenoxy)acetamide], the IC50 on BChE and against AChE was over 500 µM each time.
`O=C(/C=C/c1ccc(OCC(=O)N2CCCCC2)cc1)c1cc2ccccc2oc1=O` [Compound 9f, (E)-3-(3-(4-(2-oxo-2-(piperidin-1-yl)ethoxy)phenyl)acryloyl)-2H-chromen-2-one]: the IC50 against BChE and on AChE was over 500 µM throughout.
As for `CN(C)C(=O)COc1cccc(/C=C/C(=O)c2cc3ccccc3oc2=O)c1` [Compound 10d, (E)-N,N-dimethyl-2-(3-(3-oxo-3-(2-oxo-2H-chromen-3-yl)prop-1-en-1-yl)phenoxy)acetamide], on BChE, the IC50 came to 44 ± 2.37 µM. For the same compound, on AChE, the IC50 is over 500 µM and the “Selectivity for AChE” value is given as under 0.09.
`O=C(/C=C/c1cccc(OCCN2CCCC2)c1)c1cc2ccccc2oc1=O` [Compound 6e, (E)-3-(3-(3-(2-(pyrrolidin-1-yl)ethoxy)phenyl)acryloyl)-2H-chromen-2-one]: on BChE, the midpoint of inhibition, the IC50, lay at 4.62 ± 0.16 µM. Moreover, at AChE, the IC50 was 3.25 ± 0.14 µM, the “inhibitory activity against AChE (in words)” value is reported as “moderate inhibitory activity”, the “selectivity over BChE (in words)” value is recorded as “low selectivity” and the “Selectivity for AChE” value is 1.42.
`CC(C)=CCOc1ccccc1/C=C/C(=O)c1cc2ccccc2oc1=O` [Compound 7j, (E)-3-(3-(2-(3-methylbut-2-enyloxy)phenyl)-prop-2-enoyl)-2H-chromen-2-one]: on BChE, the IC50 was found to be 100 ± 6.84 µM. At AChE, the IC50 was over 500 µM and the “Selectivity for AChE” value is recorded as under 0.20.
On to `CC(C)CCOc1ccccc1/C=C/C(=O)c1cc2ccccc2oc1=O` [Compound 7i, (E)-3-(3-(2-(isopentyloxy)phenyl)acryloyl)-2H-chromen-2-one], for which the IC50 against BChE and against AChE was over 500 µM in each case.
For the compound `CCN(CC)CCOc1ccc(/C=C/C(=O)c2cc3ccccc3oc2=O)cc1` [Compound 5g, (E)-3-(3-(4-(2-(diethylamino)ethoxy)phenyl)acryloyl)-2H-chromen-2-one], the IC50 turned out to be 6.21 ± 0.19 µM against BChE and 4.34 ± 0.29 µM against AChE. Moreover, the “Selectivity for AChE” value at AChE is listed as 1.43.
The like results for `O=C(/C=C/c1ccccc1OCCN1CCCCC1)c1cc2ccccc2oc1=O` [Compound 7f, (E)-3-(3-(2-(2-(piperidin-1-yl)ethoxy)phenyl)acryloyl)-2H-chromen-2-one] were, in that order, 4.5 ± 0.22 µM, 29.9 ± 0.98 µM and 0.15.
`COc1cc(/C=C/C(=O)c2cc3ccccc3oc2=O)cc(OC)c1OCCN1CCCC1` [Compound 13l, (E)-3-(3-(3,5-dimethoxy-4-(2-(pyrrolidin-1-yl)ethoxy)phenyl)acryloyl)-2H-chromen-2-one] showed an IC50 against BChE of 13.6 ± 0.53 µM. Further, on AChE, inhibition was half-maximal at 29 ± 1.68 µM (IC50) and the “Selectivity for AChE” value was found to be 0.47.
The like results for `O=C(/C=C/c1ccc(OCCN2CCCCC2)cc1)c1cc2ccccc2oc1=O` [Compound 5f, (E)-3-(3-(4-(2-(piperidin-1-yl)ethoxy)phenyl)acryloyl)-2H-chromen-2-one] were, in that order, 1.03 ± 0.05 µM, 0.69 ± 0.06 µM and 1.49.
For `O=C(/C=C/c1cccc(OCCN2CCOCC2)c1)c1cc2ccccc2oc1=O` [Compound 6h, (E)-3-(3-(3-(2-morpholinoethoxy)phenyl)acryloyl)-2H-chromen-2-one], the IC50 on BChE and at AChE was over 500 µM each time.
Regarding `O=C(/C=C/c1ccc(OCCN2CCOCC2)cc1)c1cc2ccccc2oc1=O` [Compound 5h, (E)-3-(3-(4-(2-morpholinoethoxy)phenyl)acryloyl)-2H-chromen-2-one], the IC50 against BChE, at BChE (setting [1]), on AChE and at AChE (setting [2]) was over 500 µM each time. Moreover, at BChE, the “inhibitory activity against BChE (in words)” value was “almost has no inhibitory activity”. The “inhibitory activity against AChE (in words)” value against AChE is reported as “almost has no inhibitory activity”.
In the case of `O=C(/C=C/c1ccccc1OCC(=O)N1CCCCC1)c1cc2ccccc2oc1=O` [Compound 11f, (E)-3-(3-(2-(2-oxo-2-(piperidin-1-yl)ethoxy)phenyl)acryloyl)-2H-chromen-2-one], the IC50 against BChE is 106 ± 3.09 µM; against AChE, over 500 µM.
Taken in the same sequence, the figures for `CC(C)=CCOc1cccc(/C=C/C(=O)c2cc3ccccc3oc2=O)c1` [Compound 6j, (E)-3-(3-(3-(3-methylbut-2-enyloxy)phenyl)-prop-2-enoyl)-2H-chromen-2-one] were over 500 µM and over 500 µM.
Regarding `O=C(/C=C/c1ccccc1OCC(=O)N1CCCC1)c1cc2ccccc2oc1=O` [Compound 11e, (E)-3-(3-(2-(2-oxo-2-(pyrrolidin-1-yl)ethoxy)phenyl)acryloyl)-2H-chromen-2-one], the IC50 against BChE and against AChE was over 500 µM each time.
`COc1cc(/C=C/C(=O)c2cc3ccccc3oc2=O)cc(OC)c1OCCN1CCCCC1` [Compound 13m, (E)-3-(3-(3,5-dimethoxy-4-(2-(piperidin-1-yl)ethoxy)phenyl)acryloyl)-2H-chromen-2-one] registered an IC50 against BChE of 6.41 ± 0.36 µM. Besides, at AChE, the midpoint of inhibition, the IC50, lay at 9.58 ± 0.8 µM and the “Selectivity for AChE” value worked out at 0.67.
As to `CC(C)CCOc1ccc(/C=C/C(=O)c2cc3ccccc3oc2=O)cc1` [Compound 5i, (E)-3-(3-(4-(isopentyloxy)phenyl)acryloyl)-2H-chromen-2-one], the IC50 against BChE and against AChE was over 500 µM throughout.
Compound `O=C(/C=C/c1ccccc1OCCN1CCCC1)c1cc2ccccc2oc1=O` [Compound 7e, (E)-3-(3-(2-(2-(pyrrolidin-1-yl)ethoxy)phenyl)acryloyl)-2H-chromen-2-one] showed an IC50 against BChE of 3.76 ± 0.35 µM. On AChE, the IC50 stood at 230 ± 14.8 µM, the “inhibitory activity against AChE (in words)” value is recorded as “poor inhibitory activity”, the “selectivity over BChE (in words)” value is “poor selectivity” and the “Selectivity for AChE” value is listed as 0.02.
Turning to `O=C(/C=C/c1ccc(OCC(=O)N2CCCC2)cc1)c1cc2ccccc2oc1=O` [Compound 9e, (E)-3-(3-(4-(2-oxo-2-(pyrrolidin-1-yl)ethoxy)phenyl)acryloyl)-2H-chromen-2-one], the IC50 on BChE and on AChE was over 500 µM throughout.
Turning to `CC(C)CCOc1cccc(/C=C/C(=O)c2cc3ccccc3oc2=O)c1` [Compound 6i, (E)-3-(3-(3-(isopentyloxy)phenyl)acryloyl)-2H-chromen-2-one], the IC50 on BChE and against AChE was over 500 µM throughout.
Turning to `CCN(CC)CCOc1cccc(/C=C/C(=O)c2cc3ccccc3oc2=O)c1` [Compound 6g, (E)-3-(3-(3-(2-(diethylamino)ethoxy)phenyl)acryloyl)-2H-chromen-2-one], the IC50 against BChE amounted to 1.12 ± 0.11 µM. Further, on AChE, the midpoint of inhibition, the IC50, lay at 51.3 ± 1.04 µM and the “Selectivity for AChE” value is reported as 0.02.
With `CN(C)C(=O)COc1ccc(/C=C/C(=O)c2cc3ccccc3oc2=O)cc1` [Compound 9d, (E)-N,N-dimethyl-2-(4-(3-oxo-3-(2-oxo-2H-chromen-3-yl)prop-1-en-1-yl)phenoxy)acetamide], the IC50 at BChE was over 500 µM; on AChE, 18.6 ± 1.06 µM. The “Selectivity for AChE” value at AChE is listed as over 26.86.
Regarding `CN(C)CCOc1cccc(/C=C/C(=O)c2cc3ccccc3oc2=O)c1` [Compound 6d, (E)-3-(3-(3-(2-(dimethylamino)ethoxy)phenyl)acryloyl)-2H-chromen-2-one], the IC50 was determined as 15.3 ± 1.16 µM on BChE and 0.92 ± 0.07 µM on AChE. In addition, at AChE, the “Selectivity for AChE” value was found to be 16.64.
`O=C(/C=C/c1cccc(OCCN2CCCCC2)c1)c1cc2ccccc2oc1=O` [Compound 6f, (E)-3-(3-(3-(2-(piperidin-1-yl)ethoxy)phenyl)acryloyl)-2H-chromen-2-one] gave an IC50 against BChE of 4.01 ± 0.14 µM. Also, on AChE, the IC50 came out at 0.61 ± 0.02 µM and the “Selectivity for AChE” value was 6.61.
Consider `CC(C)=CCOc1ccc(/C=C/C(=O)c2cc3ccccc3oc2=O)cc1` [Compound 5j, (E)-3-(3-(4-(3-methylbut-2-enyloxy)phenyl)-prop-2-enoyl)-2H-chromen-2-one], for which the IC50 on BChE and against AChE was over 500 µM throughout.
For `O=C(/C=C/c1cccc(OCC(=O)N2CCCC2)c1)c1cc2ccccc2oc1=O` [Compound 10e, (E)-3-(3-(3-(2-oxo-2-(pyrrolidin-1-yl)ethoxy)phenyl)acryloyl)-2H-chromen-2-one], the IC50 against BChE and against AChE was over 500 µM throughout.
On BChE, `COc1cc(/C=C/C(=O)c2cc3ccccc3oc2=O)ccc1OCCN(C)C` [Compound 12k, (E)-3-(3-(4-(2-(dimethylamino)ethoxy)-3-methoxyphenyl)acryloyl)-2H-chromen-2-one] returned an IC50 of 8.48 ± 0.29 µM. For the same compound, on AChE, inhibition was half-maximal at 1.65 ± 0.09 µM (IC50) and the “Selectivity for AChE” value was found to be 5.15.
Take `CN(C)CCOc1ccccc1/C=C/C(=O)c1cc2ccccc2oc1=O` [Compound 7d, (E)-3-(3-(2-(2-(dimethylamino)ethoxy)phenyl)acryloyl)-2H-chromen-2-one]: the IC50 at BChE stood at 15.2 ± 0.6 µM; on AChE, 16.4 ± 0.22 µM. In addition, the “Selectivity for AChE” value on AChE is recorded as 0.92.
As for `COc1cc(/C=C/C(=O)c2cc3ccccc3oc2=O)ccc1OCCN1CCCCC1` [Compound 12m, (E)-3-(3-(3-methoxy-4-(2-(piperidin-1-yl)ethoxy)phenyl)acryloyl)-2H-chromen-2-one], on BChE, 0.52 ± 0.01 µM corresponded to half-maximal inhibition (IC50). At AChE, it took 0.37 ± 0.02 µM to reach half-maximal inhibition (IC50) and the “Selectivity for AChE” value is recorded as 1.41.
Turning to `COc1cc(/C=C/C(=O)c2cc3ccccc3oc2=O)cc(OC)c1OCCN(C)C` [Compound 13k, (E)-3-(3-(4-(2-(dimethylamino)ethoxy)-3,5-dimethoxyphenyl)acryloyl)-2-chromen-2-one], the IC50 on BChE (setting [1]) was found to be 13.2 ± 0.32 µM; on AChE (setting [2]), 7.07 ± 0.46 µM. Also, the “Selectivity for AChE” value on AChE is on record as 1.87.
As for `CN(C)CCOc1ccc(/C=C/C(=O)c2cc3ccccc3oc2=O)cc1` [Compound 5d, (E)-3-(3-(4-(2-(dimethylamino)ethoxy)phenyl)acryloyl)-2H-chromen-2-one], the IC50 against BChE was over 500 µM; against AChE it was 0.37 ± 0.03 µM.
